Test systems include LOX IMVI; SW-620; HCT-116; IGROV-1; U-251; 786-0; SF-268; HOP-92; NCI-H23; RPMI-8226; NCI-H460; SNB-19; NCI-H226; MOLT-4; UACC-257; DU-145; BT-549; MDA-MB-231; PC-3; MDA-MB-435.
Common to all, as to assay: NCI anticancer screen, dose series, 48 h

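Exposure lasted 48 hours, with cells grown in 96-well plates and compounds tested at five concentrations. GI50 = concentration required for 50% inhibition of growth.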 The source made the active and inactive calls. No stated cut-off is given here; in the data, active = GI50 up to about 1.1 µM and inactive = higher. Some results are limits rather than exact numbers.

`O=c1ncc(F)cn1C1OC(CO)C(O)C1O` (configuration not stated): the GI50 in the test on LOX IMVI is 16.7 µM (inactive); in the test with SW-620, > 31.4 µM (inactive); with HCT-116 it was 24.4 µM (inactive); in the test with IGROV-1, > 30.8 µM (inactive); with U-251, > 14.9 µM (inactive); with 786-0, > 36.4 µM (inactive). The GI50 with SF-268 is > 23.9 µM (inactive); with HOP-92, 23.8 µM (inactive); in the test with NCI-H23, > 100 µM (inactive); with RPMI-8226, 15.1 µM (inactive); in the test with NCI-H460, 23.6 µM (inactive); in the test with SNB-19, > 18.3 µM (inactive). The GI50 with NCI-H226 was > 19.1 µM (inactive); in the test on MOLT-4, > 20.7 µM (inactive); in the test on UACC-257, 14.1 µM (inactive).

Take `Cc1ccccc1Nc1nc(NNC(=O)Cc2ccccc2)nc(NNC(=O)c2ccncc2)n1`: the GI50 with LOX IMVI, in the test with IGROV-1, in the test on U-251, in the test with 786-0, with SF-268 and with HOP-92 was > 10 µM (inactive) throughout. The GI50 in the test with DU-145, in the test on RPMI-8226, in the test on NCI-H460, with BT-549, with MDA-MB-231 and with MOLT-4 was > 10 µM (inactive) in each case. Also, the GI50 in the test with UACC-257 is > 10 µM (inactive).

Regarding `CC(N)C(=O)c1ccc(O)cc1` (configuration not stated), the GI50 with LOX IMVI, in the test on SW-620, in the test on HCT-116, in the test on IGROV-1, in the test with U-251 and in the test on 786-0 was > 100 µM (inactive) in each case. Also, the GI50 in the test on SF-268, with HOP-92, in the test with NCI-H23, in the test with RPMI-8226, with NCI-H460 and in the test with SNB-19 was > 100 µM (inactive) in each case. For the same compound, the GI50 in the test on NCI-H226, with MOLT-4 and with UACC-257 was > 100 µM (inactive) throughout.

Turning to `CCCOC(=O)C1CCC(=O)N1C(=O)C(C)Cl` (configuration not stated), the GI50 in the test with LOX IMVI, with SW-620, with HCT-116, in the test on IGROV-1, in the test on U-251 and with 786-0 was > 100 µM (inactive) in each case. Further, the GI50 with SF-268, in the test with HOP-92, in the test on NCI-H23, with RPMI-8226, with NCI-H460 and in the test with SNB-19 was > 100 µM (inactive) throughout. The GI50 with NCI-H226, with MOLT-4 and in the test on UACC-257 was > 100 µM (inactive) throughout.

`CC(=O)OC1CCN(C(=O)c2ccccc2)CC1CC1(c2cc3ccccc3[nH]2)OCCO1` (configuration not stated): the GI50 was 83.2 µM (inactive) in the test on LOX IMVI; > 100 µM (inactive) in the test with SW-620; 72.6 µM (inactive) with HCT-116; 61.2 µM (inactive) with IGROV-1; 77.4 µM (inactive) in the test on U-251; > 100 µM (inactive) in the test with 786-0. In addition, the GI50 was 48.9 µM (inactive) with HOP-92; 69.2 µM (inactive) in the test on NCI-H23; > 100 µM (inactive) with DU-145; 22.3 µM (inactive) in the test with RPMI-8226; > 100 µM (inactive) with SNB-19; > 100 µM (inactive) in the test with MDA-MB-231. Besides, the GI50 in the test with PC-3 was 34.9 µM (inactive); with MDA-MB-435, 42.8 µM (inactive); in the test on NCI-H226 it was > 100 µM (inactive); in the test on MOLT-4 it was 32.2 µM (inactive); with UACC-257 it was 50 µM (inactive).

Consider `CSc1cc(Cl)c(C)cc1S(=O)(=O)NC(=O)NNc1ccc(C)cc1`, for which the GI50 with LOX IMVI, with SW-620, with HCT-116, with IGROV-1, with U-251 and in the test with 786-0 was > 100 µM (inactive) throughout. The GI50 in the test on SF-268 was > 100 µM (inactive); with DU-145 it was 48.9 µM (inactive); in the test on NCI-H460 it was > 100 µM (inactive); with SNB-19 it was > 100 µM (inactive); in the test with MDA-MB-231, > 100 µM (inactive); in the test on PC-3, 43.5 µM (inactive). In addition, the GI50 in the test on MDA-MB-435 was > 100 µM (inactive); in the test with NCI-H226, > 100 µM (inactive); in the test with MOLT-4, 43 µM (inactive).

`COc1c(CC=C(C)C)c(O)c(C(CC(C)C)c2c(O)c3c(c(C(C)=O)c2O)OC(C(C)(C)O)C3)c(O)c1C(C)=O` (configuration not stated): the GI50 in the test on LOX IMVI is 4.78 µM (inactive); with SW-620, 4.62 µM (inactive); in the test on HCT-116 it was 3.64 µM (inactive); in the test with IGROV-1, 5.07 µM (inactive); in the test with 786-0 it was 5.65 µM (inactive); with SF-268, 4.53 µM (inactive). Further, the GI50 with HOP-92 was 2.71 µM (inactive); with NCI-H23, 2.63 µM (inactive); in the test on DU-145, 4.54 µM (inactive); in the test on RPMI-8226, 0.968 µM (active); in the test with BT-549, 3 µM (inactive); in the test on SNB-19 it was 5.09 µM (inactive). Moreover, the GI50 in the test with PC-3 was 3.15 µM (inactive); in the test on MDA-MB-435, 4.63 µM (inactive); in the test with MOLT-4, 1.74 µM (inactive); in the test on UACC-257, 4.18 µM (inactive).

In the case of `CCOP(=O)(Cc1nc(C#N)c(N)o1)OCC`, the GI50 with LOX IMVI, with SW-620, in the test on HCT-116, in the test on IGROV-1, with U-251 and with 786-0 was > 100 µM (inactive) each time. Further, the GI50 with SF-268, in the test on HOP-92, in the test on DU-145, in the test on RPMI-8226, in the test with NCI-H460 and with SNB-19 was > 100 µM (inactive) throughout. Further, the GI50 with MDA-MB-231, with PC-3, in the test on MDA-MB-435, in the test with NCI-H226, in the test on MOLT-4 and in the test on UACC-257 was > 100 µM (inactive) each time.

For `Cn1c2c(c3ccccc31)CCN1C(=O)C3SC21C1C(=O)N(c2ccccc2)C(=O)C31` (configuration not stated), the GI50 is > 100 µM (inactive) in the test with LOX IMVI; 36.8 µM (inactive) in the test with SW-620; > 100 µM (inactive) with HCT-116; > 100 µM (inactive) in the test on IGROV-1; > 100 µM (inactive) with U-251; > 100 µM (inactive) with 786-0. Also, the GI50 in the test with SF-268 was > 100 µM (inactive); in the test with HOP-92, > 100 µM (inactive); with NCI-H23 it was > 100 µM (inactive); in the test with DU-145, > 100 µM (inactive); in the test with RPMI-8226, 38.1 µM (inactive); with BT-549, > 100 µM (inactive). Further, the GI50 in the test with SNB-19 was > 100 µM (inactive); with MDA-MB-231, > 100 µM (inactive); in the test with MDA-MB-435 it was > 100 µM (inactive); with NCI-H226, 40.3 µM (inactive); in the test with MOLT-4, 38.5 µM (inactive); in the test with UACC-257 it was 20 µM (inactive).

Take `C[C@]12CC[C@H](O)CC1=CC[C@@H]1C2CC[C@]2(C)C(=O)N(N)C(=O)CC12` (some centres not stated): the GI50 in the test with LOX IMVI, in the test with SW-620, with HCT-116, with IGROV-1, in the test on U-251 and with 786-0 was > 100 µM (inactive) throughout. Moreover, the GI50 with SF-268, with HOP-92, in the test with NCI-H23, with RPMI-8226, in the test with NCI-H460 and in the test on SNB-19 was > 100 µM (inactive) in each case. Moreover, the GI50 in the test with NCI-H226, in the test with MOLT-4 and in the test on UACC-257 was > 100 µM (inactive) each time.

`COc1cc2c3c(c1OCc1ccccc1)NCCC3NCC2` (configuration not stated): the GI50 in the test with LOX IMVI, in the test on SW-620, in the test on HCT-116, in the test with IGROV-1, in the test on U-251 and in the test with 786-0 was > 100 µM (inactive) throughout. For the same compound, the GI50 is > 100 µM (inactive) in the test with SF-268; 86.1 µM (inactive) in the test on HOP-92; > 100 µM (inactive) with NCI-H23; > 100 µM (inactive) with RPMI-8226; > 100 µM (inactive) in the test on NCI-H460; > 100 µM (inactive) in the test on SNB-19. The GI50 with NCI-H226, in the test with MOLT-4 and in the test with UACC-257 was > 100 µM (inactive) throughout.

For the compound `CC1=C(N(C)C)C(=O)c2nc3n(c2C1=O)CCC3OC(N)=O` (configuration not stated), the GI50 with LOX IMVI was 10.9 µM (inactive); in the test with SW-620, 18.7 µM (inactive); in the test with HCT-116 it was 15.4 µM (inactive); in the test on IGROV-1, 16.8 µM (inactive); with U-251 it was 23.2 µM (inactive); in the test with 786-0, 17.1 µM (inactive). Besides, the GI50 in the test with SF-268 was 20.1 µM (inactive); in the test on HOP-92, 14.8 µM (inactive); in the test with NCI-H23, 13.8 µM (inactive); in the test on RPMI-8226 it was 16.9 µM (inactive); in the test on NCI-H460, 15.6 µM (inactive); in the test with SNB-19, 17.5 µM (inactive). The GI50 with NCI-H226 is 19.4 µM (inactive); with MOLT-4, 13.1 µM (inactive); in the test with UACC-257, 14.2 µM (inactive).

`Cc1c(O)c(=O)ccn1CCN`: the GI50 in the test with LOX IMVI, with SW-620, with HCT-116, with IGROV-1, in the test with U-251 and with 786-0 was > 100 µM (inactive) each time. The GI50 in the test on SF-268, with HOP-92, in the test with NCI-H23, in the test with RPMI-8226, in the test with NCI-H460 and in the test on SNB-19 was > 100 µM (inactive) each time. Also, the GI50 in the test with NCI-H226, in the test on MOLT-4 and in the test with UACC-257 was > 100 µM (inactive) throughout.

(Values after ChEMBL document CHEMBL1201862, “PubChem BioAssay data set” (2004).)
